Source: patent US20260000766A1, “ULTRASOUND OPTOGENETIC COMPOSITIONS AND METHODS” (BOARD OF REGENTS, THE UNIVERSITY OF TEXAS SYSTEM, priority 2022, published 2026)

Assay: Fluorescence spectrum tests of L012 at different pH and H2O2 concentration
Format: physicochemical
Procedure: The fluorescence spectrum tests of L012 at different pH and H2O2 concentration. the quantum yield of the L012 solution at different Ph was investigated. 1 mL L012 solution (0.5 mg/mL) with pH 7.4, 8.5, and 10.0 was mixed with H2O2, where the final concentration of H2O2 was 250 μM. The fluorescence spectrum was recorded via Fluorolog3 Fluorometer. In addition, we also investigated the quantum yield of the L012 solution with different H2O2 concentrations at pH 7.4. 1 mL L012 solution (0.5 mg/mL) with different H2O2 concentrations (50, 250, and 500 μM) at pH 7.4 was prepared at first, and the fluorescence spectrum was also recorded via Fluorolog3 Fluorometer.

- improvement of fluorescence intensity (H2O2 concentration increased from 50 to 500 μM): around four
- increase of fluorescence intensity (pH changed from 7.4 to 10): around 30%
SMILES: Nc1c(-c2ccccc2)nc(Cl)c2c([O-])n[nH]c(=O)c12.[Na+] [L012, L012 sodium salt]
